# Article PMC8860381 (Molecular Cell, 2022)
# Legend:
# [1] = target: T1, hSKI complex (hSKI-WT; hSKI2-hSKI3-hSKI8) (Homo sapiens, UniProt Q15477, E424Q); test: pyruvate kinase/lactate dehydrogenase-coupled ATPase assay; assay type: biochemical; settings: 10 μg/mL poly(U) RNA, 50 nM complex, 5 mM MgAc2, 50 mM KAc, pH 7.5, 37°C
# T1 construct: gene SKIC2; full-length subunits co-expressed in Sf21 insect cells; 3C-cleavable 10xHis tag on TTC37 N-terminus, tag removed; with Superkiller complex protein 3 (tetratricopeptide repeat protein 37); Superkiller complex protein 8 (WD repeat-containing protein 61)
# [2] = target: T2, hSKI-Δarch (Homo sapiens, UniProt Q15477); test: as above; assay type: biochemical; settings: 10 μg/mL poly(U) RNA, 50 nM complex, 5 mM MgAc2, 50 mM KAc, pH 7.5, 37°C
# T2 construct: gene SKIC2; Sf21 insect cells; 10xHis tag on TTC37 removed; with Superkiller complex protein 3 (tetratricopeptide repeat protein 37); Superkiller complex protein 8 (WD repeat-containing protein 61)
# Description: pyruvate kinase/lactate dehydrogenase-coupled ATPase assay on hSKI-Δarch | removal of the hSKI2 arch domain led only to a minor increase in the ATPase activity
# [3] = target: T3, hSKI complex (hSKI-WT; hSKI2-hSKI3-hSKI8) (Homo sapiens, UniProt Q15477, V341G); test: as above; assay type: biochemical; settings: 10 μg/mL poly(U) RNA, 50 nM complex, 5 mM MgAc2, 50 mM KAc, pH 7.5, 37°C
# T3 construct: gene SKIC2; full-length subunits co-expressed in Sf21 insect cells; 3C-cleavable 10xHis tag on TTC37 N-terminus, tag removed; with Superkiller complex protein 3 (tetratricopeptide repeat protein 37); Superkiller complex protein 8 (WD repeat-containing protein 61)
# [4] = system: Nc1ncnc2c1ncn2[C@@H]1O[C@H](COP(=O)(O)OP(=O)(O)OP(=O)(O)O)[C@@H](O)[C@H]1O; test: as above; assay type: biochemical, Homo sapiens; settings: 10 μg/mL poly(U) RNA, 50 nM complex, 5 mM MgAc2, 50 mM KAc, pH 7.5, 37°C
# [5] = target: hEXO10c (hEXO9 core + hDIS3L D486N) (Homo sapiens, UniProt Q8TF46;Q9Y3B2;Q13868;Q9NQT5;Q9NPD3;Q9NQT4;Q5RKV6;Q15024;Q96B26;Q06265 …, D486N); test: RNase protection (benzonase); hEXO10c alone, characteristic footprint, lane 1; Binding buffers not in material (Methods sections for RNase protection and cryo-EM sample preparation are empty); hSKI storage buffer 20 mM Hepes pH 7.5, 100 mM NaCl, 2 mM DTT; settings: protein: recombinant; tags: TwinStrep-3C on DIS3L N-terminus; copies: 1;1;1;1;1;1;1;1;1;1; label: 32P body-labelled (alpha-32P UTP); single strand
molecule,measurement,setting,value
Nc1ncnc2c1ncn2[C@@H]1O[C@H](COP(=O)(O)OP(=O)(O)OP(=O)(O)O)[C@@H](O)[C@H]1O [ATP],ATPase activity abolished,[1],the ATPase activity of hSKI was abolished in the case of a mutant complex
same,Km,[2],121 µM
same,inactive in ATPase assay,[3],V341G substitution (hSKI-THES) and indeed found that it is inactive in ATPase assays
hSKI complex (hSKI-WT; hSKI2-hSKI3-hSKI8) (Homo sapiens),Km,[4],149.4 µM
same,kcat,[4],0.685 s⁻¹
GGGC(*UC)48 RNA (ssRNA) RNA: GGGCUCUCUCUCUCUCUCUCUCUCUCUCUCUCUCUCUCUCUCUCUCUCUCUCUCUCUCUCUCUCUCUCUCUCUCUCUCUCUCUCUCUCUCUCUCUCUCUC,binding result,[5],binds
